# Assay results published in article PMC5697638, “Identification of a Potent Phosphoinositide 3‐Kinase Pan Inhibitor Displaying a Strategic Carboxylic Acid Group and Development of Its Prodrugs” (Chemmedchem, 2017).
# Columns and labels:
# Type in all cases: biochemical
# hPI3Kδ (PIK3CD/PIK3R1) = target: T1, hPI3Kδ (PIK3CD/PIK3R1) (Homo sapiens, UniProt O00329); test: lipid kinase assay (ADP-Glo), PI3Kδ; conditions: for inhibition at 1 µM: determined at 1 μM, at least triplicate, read-out: Inhibitory activity, PI3K isoform δ; for IC50: Table 2, mean of at least three determinations, 95 % confidence intervals
# T1 construct: purchased ProQinase, Germany 1162–1165‐1
# T1 sequence (O00329 whole entry, canonical isoform): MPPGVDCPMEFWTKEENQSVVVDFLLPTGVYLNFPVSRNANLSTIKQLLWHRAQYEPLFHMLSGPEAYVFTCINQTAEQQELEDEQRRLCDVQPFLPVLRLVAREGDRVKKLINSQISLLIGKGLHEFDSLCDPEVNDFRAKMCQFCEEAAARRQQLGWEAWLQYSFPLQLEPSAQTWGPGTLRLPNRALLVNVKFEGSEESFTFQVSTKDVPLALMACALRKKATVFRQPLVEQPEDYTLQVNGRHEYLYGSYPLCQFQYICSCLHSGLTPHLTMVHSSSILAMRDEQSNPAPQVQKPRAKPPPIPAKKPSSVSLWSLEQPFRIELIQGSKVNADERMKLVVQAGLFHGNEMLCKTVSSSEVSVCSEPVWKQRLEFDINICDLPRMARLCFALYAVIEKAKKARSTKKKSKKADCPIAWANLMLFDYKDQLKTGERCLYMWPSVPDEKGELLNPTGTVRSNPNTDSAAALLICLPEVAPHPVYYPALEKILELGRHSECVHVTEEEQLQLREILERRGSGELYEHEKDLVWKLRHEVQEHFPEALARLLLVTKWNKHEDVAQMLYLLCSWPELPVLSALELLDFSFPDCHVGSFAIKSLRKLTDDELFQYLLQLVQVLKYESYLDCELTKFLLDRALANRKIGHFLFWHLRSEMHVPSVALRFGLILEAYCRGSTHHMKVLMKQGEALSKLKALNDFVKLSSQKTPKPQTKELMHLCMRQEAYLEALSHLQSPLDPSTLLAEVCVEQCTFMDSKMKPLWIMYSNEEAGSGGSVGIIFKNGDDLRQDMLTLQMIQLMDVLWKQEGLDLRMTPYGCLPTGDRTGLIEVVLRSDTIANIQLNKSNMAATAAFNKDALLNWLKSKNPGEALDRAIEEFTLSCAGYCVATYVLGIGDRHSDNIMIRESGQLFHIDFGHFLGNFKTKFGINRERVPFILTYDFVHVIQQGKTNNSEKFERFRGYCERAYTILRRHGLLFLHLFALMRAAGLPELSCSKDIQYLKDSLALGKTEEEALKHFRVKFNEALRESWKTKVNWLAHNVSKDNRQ
# T1 sequence (P27986 whole entry partner, canonical isoform): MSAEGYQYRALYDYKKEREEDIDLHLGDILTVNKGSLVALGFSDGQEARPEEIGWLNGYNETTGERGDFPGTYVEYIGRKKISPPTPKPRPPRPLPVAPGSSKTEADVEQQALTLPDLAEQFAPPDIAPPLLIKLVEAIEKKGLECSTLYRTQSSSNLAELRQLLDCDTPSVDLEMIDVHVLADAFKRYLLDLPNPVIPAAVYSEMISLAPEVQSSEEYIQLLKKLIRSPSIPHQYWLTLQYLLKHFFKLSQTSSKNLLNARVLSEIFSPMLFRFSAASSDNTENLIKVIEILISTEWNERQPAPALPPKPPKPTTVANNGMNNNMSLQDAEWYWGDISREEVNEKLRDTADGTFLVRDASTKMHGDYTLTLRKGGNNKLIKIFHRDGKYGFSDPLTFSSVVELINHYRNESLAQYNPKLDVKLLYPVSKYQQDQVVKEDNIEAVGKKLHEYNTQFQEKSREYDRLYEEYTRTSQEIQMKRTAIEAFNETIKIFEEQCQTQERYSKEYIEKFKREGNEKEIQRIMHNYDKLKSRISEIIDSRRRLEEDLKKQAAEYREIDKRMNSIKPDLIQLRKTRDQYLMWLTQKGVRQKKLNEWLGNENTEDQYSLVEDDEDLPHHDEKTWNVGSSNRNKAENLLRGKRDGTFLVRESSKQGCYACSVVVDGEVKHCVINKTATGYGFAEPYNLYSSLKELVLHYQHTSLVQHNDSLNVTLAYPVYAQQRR
# Procedure: (§1) In vitro selection, lipid kinase assay: To determine the inhibitory activity of the new molecular entities on PI3K enzyme, a lipid kinase assay was performed: recombinant proteins (30 ng), human PI3Kα (PIK3CA/PIK3R1, #1161‐1165‐1 ProQinase–Germany), hPI3Kβ (PIK3CB wt/PIK3R1, #1168‐1165‐1 ProQinase, Germany), hPI3Kγ (PIK3CG, #1163‐0000‐1 ProQinase, Germany), hPI3Kδ (PIK3CD/PIK3R1, #1162–1165‐1 ProQinase, Germany), hPI3K‐C2α (PIK3C2A, #14‐906 Merck Millipore_Merck KGaA, Germany), hPI3K‐C2β (PIK3C2B, #14‐907 Merck Millipore_Merck KGaA, Germany), hPI3K‐c2γ (PIK3C2G, #1207‐0000‐1 ProQinase, Germany), and hVps34 (PIK3C3, #1160‐0000‐1 ProQinase, Germany), were incubated in kinase buffer {12.5 μL; 20 mM Tris‐HCl pH 7.5, 10 mM MgCl2, 10 μM ATP, 0.05 mg mL^−1 BSA, 0.5 mM EDTA, 5 mM HEPES pH 7.5, for PI3Kα,PI3Kβ, PI3Kγ, PI3Kδ, PI3KC‐2α, and PI3KC‐2γ; 15 mM MnCl2, 5 mM EGTA, 100 μM ATP, 50 mM HEPES pH 7.5, 100 mM NaCl, and 0.03 % CHAPS for PI3K‐C2β and VPS34 {BSA=bovine serum albumin; EDTA=ethylenediaminetetraacetic acid; HEPES=4‐(2‐hydroxyethyl)‐1‐piperazineethanesulfonic acid; EGTA=ethylene glycol‐bis(2‐aminoethylether)‐N,N,N′,N′‐tetraacetic acid; CHAPS=3‐[(3‐cholamidopropyl)dimethylammonio]‐1‐propanesulfonate}. In the reaction, the ATP concentration used for different PI3Ks was defined on the basis of the Michaelis–Menten kinetics of each enzyme, provided by the supplier. Reaction was performed in presence of 0.5 mg mL^−1 lipid micelles (1:1 phosphatidylinositol/phosphatidylserine) and in the absence (DMSO alone) or presence of increasing concentrations of each compound (from 0.1 nM to 30 μM). The mixture was kept at room temperature (RT) for 30 min for PI3Kα, PI3Kβ, PI3Kγ, PI3Kδ, PI3KC‐2α, and PI3KC‐2γ and for 1 h for PI3K‐C2β and PI3K‐C3. The amount of ADP produced in the reaction was measured by using the ADP‐Glo Kinase Assay kit from Promega (#V9102) and a luminescence reader (Glomax multi detection system, Promega, model number 9301‐010).
# (§2) The residual PI3K lipid kinase activity in the presence of each molecule at different concentrations was related to the control, intended as the recombinant protein in the presence of DMSO alone and was expressed as a percentage. To derive the IC50 value, all data (% of lipid kinase activity) were plotted on a dose–response curve (Graph Pad software), and the IC50 was calculated by using nonlinear regression fit (equation [log agonist] versus response).
# [1] = target: T2, hPI3Kβ (PIK3CB wt/PIK3R1) (Homo sapiens, UniProt P42338); test: lipid kinase assay (ADP-Glo), PI3Kβ; conditions: for inhibition at 1 µM: determined at 1 μM, at least triplicate, read-out: Inhibitory activity, PI3K isoform β; for IC50: Table 2, mean of at least three determinations, 95 % confidence intervals
# T2 construct: purchased ProQinase, Germany 1168‐1165‐1
# T2 sequence (P42338 whole entry, canonical isoform): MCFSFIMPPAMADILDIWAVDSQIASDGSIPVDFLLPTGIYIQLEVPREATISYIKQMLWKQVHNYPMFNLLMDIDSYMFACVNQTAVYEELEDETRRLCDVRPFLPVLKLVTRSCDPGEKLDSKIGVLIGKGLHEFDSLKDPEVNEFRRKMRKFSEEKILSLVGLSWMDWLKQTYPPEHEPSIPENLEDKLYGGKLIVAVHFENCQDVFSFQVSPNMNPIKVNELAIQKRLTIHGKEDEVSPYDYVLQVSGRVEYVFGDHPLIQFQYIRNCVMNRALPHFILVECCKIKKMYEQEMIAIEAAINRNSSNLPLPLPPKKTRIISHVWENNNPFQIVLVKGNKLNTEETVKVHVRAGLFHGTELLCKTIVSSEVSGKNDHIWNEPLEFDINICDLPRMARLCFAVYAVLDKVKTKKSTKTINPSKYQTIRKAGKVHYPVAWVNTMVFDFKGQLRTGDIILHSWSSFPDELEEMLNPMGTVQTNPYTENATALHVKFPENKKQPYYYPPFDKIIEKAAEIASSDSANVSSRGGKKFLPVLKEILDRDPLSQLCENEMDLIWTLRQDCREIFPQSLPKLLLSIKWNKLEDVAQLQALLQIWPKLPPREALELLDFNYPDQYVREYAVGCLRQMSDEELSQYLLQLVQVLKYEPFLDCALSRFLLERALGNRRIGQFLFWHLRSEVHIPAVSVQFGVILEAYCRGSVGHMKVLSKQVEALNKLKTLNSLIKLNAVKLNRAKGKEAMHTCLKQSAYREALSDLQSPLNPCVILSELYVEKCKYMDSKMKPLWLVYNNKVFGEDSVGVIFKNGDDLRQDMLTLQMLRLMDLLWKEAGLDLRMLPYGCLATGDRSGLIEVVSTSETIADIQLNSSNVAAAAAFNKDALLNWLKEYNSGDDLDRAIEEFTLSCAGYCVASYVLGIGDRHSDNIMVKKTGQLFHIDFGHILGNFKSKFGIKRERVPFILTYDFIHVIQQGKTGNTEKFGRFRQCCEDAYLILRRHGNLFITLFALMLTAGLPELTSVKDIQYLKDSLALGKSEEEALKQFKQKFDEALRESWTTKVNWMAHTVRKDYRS
# T2 sequence (P27986 whole entry partner, canonical isoform): as the sequence (P27986 whole entry partner, canonical isoform) above
# Procedure: as §1, §2
# [2] = target: T3, human PI3Kα (PIK3CA/PIK3R1) (Homo sapiens, UniProt P42336); test: lipid kinase assay (ADP-Glo), PI3Kα; conditions: for inhibition at 1 µM: determined at 1 μM, at least triplicate, read-out: Inhibitory activity, PI3K isoform α; for IC50: Table 2, mean of at least three determinations, 95 % confidence intervals, read-out: IC50 PI3Kα
# T3 construct: purchased ProQinase, Germany 1161‐1165‐1
# T3 sequence (P42336 whole entry, canonical isoform): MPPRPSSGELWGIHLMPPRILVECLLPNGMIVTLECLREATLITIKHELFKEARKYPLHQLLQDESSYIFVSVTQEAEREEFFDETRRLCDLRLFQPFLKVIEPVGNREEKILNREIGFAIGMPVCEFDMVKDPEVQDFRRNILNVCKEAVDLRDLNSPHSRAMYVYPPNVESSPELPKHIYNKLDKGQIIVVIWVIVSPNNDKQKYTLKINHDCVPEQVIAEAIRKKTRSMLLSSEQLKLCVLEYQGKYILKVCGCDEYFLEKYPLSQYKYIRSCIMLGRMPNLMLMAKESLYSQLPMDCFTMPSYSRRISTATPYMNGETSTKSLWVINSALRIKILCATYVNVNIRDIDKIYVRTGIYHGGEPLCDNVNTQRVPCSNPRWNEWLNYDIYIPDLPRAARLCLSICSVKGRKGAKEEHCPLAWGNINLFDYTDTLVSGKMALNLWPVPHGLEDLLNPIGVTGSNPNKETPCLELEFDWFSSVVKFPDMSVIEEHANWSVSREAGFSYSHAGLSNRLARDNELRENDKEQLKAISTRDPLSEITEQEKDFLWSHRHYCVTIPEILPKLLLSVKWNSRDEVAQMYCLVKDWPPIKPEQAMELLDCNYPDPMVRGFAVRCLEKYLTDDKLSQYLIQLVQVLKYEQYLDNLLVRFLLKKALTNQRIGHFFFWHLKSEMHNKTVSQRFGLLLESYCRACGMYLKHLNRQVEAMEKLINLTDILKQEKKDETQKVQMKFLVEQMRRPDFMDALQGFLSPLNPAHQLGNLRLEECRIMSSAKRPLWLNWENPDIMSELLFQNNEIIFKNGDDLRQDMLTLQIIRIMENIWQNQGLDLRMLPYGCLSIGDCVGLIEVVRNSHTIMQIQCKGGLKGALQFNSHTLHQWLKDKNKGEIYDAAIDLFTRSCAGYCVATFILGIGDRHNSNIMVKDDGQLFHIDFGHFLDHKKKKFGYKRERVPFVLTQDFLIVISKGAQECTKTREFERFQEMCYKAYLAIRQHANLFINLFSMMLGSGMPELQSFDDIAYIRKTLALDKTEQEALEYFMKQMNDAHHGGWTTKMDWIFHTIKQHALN
# T3 sequence (P27986 whole entry partner, canonical isoform): as the sequence (P27986 whole entry partner, canonical isoform) above
# Procedure: as §1, §2
# hPI3Kγ (PIK3CG) = target: T4, hPI3Kγ (PIK3CG) (Homo sapiens, UniProt P48736); test: lipid kinase assay (ADP-Glo), PI3Kγ; conditions: for inhibition at 1 µM: determined at 1 μM, at least triplicate, read-out: Inhibitory activity, PI3K isoform γ; for IC50: Table 2, mean of at least three determinations, 95 % confidence intervals
# T4 construct: purchased ProQinase, Germany 1163‐0000‐1
# T4 sequence (P48736 whole entry, canonical isoform): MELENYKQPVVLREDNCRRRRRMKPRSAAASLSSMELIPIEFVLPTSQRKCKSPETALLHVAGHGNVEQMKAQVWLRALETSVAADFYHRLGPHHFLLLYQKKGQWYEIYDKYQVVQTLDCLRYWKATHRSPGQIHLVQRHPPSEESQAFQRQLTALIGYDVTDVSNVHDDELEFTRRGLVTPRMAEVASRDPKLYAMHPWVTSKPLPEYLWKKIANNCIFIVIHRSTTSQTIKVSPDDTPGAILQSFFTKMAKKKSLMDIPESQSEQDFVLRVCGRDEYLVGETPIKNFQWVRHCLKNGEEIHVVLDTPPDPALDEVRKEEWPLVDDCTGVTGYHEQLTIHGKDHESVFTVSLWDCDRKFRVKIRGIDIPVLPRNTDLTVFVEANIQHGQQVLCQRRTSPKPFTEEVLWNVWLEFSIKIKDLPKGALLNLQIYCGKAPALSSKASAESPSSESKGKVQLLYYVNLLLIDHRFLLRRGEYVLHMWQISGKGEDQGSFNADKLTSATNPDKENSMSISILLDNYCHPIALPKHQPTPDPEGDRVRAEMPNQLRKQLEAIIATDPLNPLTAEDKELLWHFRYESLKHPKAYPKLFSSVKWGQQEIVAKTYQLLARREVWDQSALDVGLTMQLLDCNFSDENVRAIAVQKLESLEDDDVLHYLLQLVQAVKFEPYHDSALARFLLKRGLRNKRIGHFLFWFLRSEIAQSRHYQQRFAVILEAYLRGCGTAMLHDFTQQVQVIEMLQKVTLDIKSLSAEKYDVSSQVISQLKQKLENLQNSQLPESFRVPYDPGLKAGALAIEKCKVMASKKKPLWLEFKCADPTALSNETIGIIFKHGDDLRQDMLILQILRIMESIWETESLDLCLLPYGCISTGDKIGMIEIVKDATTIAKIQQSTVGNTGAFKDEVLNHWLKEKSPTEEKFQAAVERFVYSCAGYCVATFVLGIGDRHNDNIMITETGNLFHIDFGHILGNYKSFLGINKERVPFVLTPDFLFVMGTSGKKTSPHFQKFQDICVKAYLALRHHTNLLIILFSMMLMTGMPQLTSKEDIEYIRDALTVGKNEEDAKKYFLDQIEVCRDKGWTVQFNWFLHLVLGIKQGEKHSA
# Procedure: as §1, §2
SMILES,inhibition at 1 µM (hPI3Kδ (PIK3CD/PIK3R1)) [%],inhibition at 1 µM [1] [%],inhibition at 1 µM [2] [%],inhibition at 1 µM (hPI3Kγ (PIK3CG)) [%],IC50 (hPI3Kδ (PIK3CD/PIK3R1)) [µM],IC50 [1] [µM],IC50 [2] [µM],IC50 (hPI3Kγ (PIK3CG)) [µM]
"Cc1cc(O)ccc1-n1cc(-c2cccc3c(=O)cc(N4CCOCC4)[nH]c23)nn1 [Compound 40, 8‐[1‐(4‐Hydroxy‐2‐methylphenyl)‐1H‐1,2,3‐triazol‐4‐yl]‐2‐morpholinoquinolin‐4(1H)‐one]",< 50,< 50,< 50,< 50,–,–,–,–
"O=c1cc(N2CCOCC2)[nH]c2c(-c3cn(-c4ccccc4CO)nn3)cccc12 [Compound 41, 8‐{1‐[2‐(Hydroxymethyl)phenyl]‐1H‐1,2,3‐triazol‐4‐yl}‐2‐morpholinoquinolin‐4(1H)‐one]",< 50,< 50,< 50,< 50,–,–,–,–
"COC(=O)c1ccc(-n2cc(-c3cccc4c(=O)cc(N5CCOCC5)[nH]c34)nn2)cc1 [Compound 42, Methyl 4‐[4‐(2‐morpholino‐4‐oxo‐1,4‐dihydroquinolin‐8‐yl)‐1H‐1,2,3‐triazol‐1‐yl]benzoate]",< 50,< 50,< 50,< 50,–,–,–,–
"COc1ccc(-n2cc(-c3cccc4c(=O)cc(N5CCOCC5)[nH]c34)nn2)cc1OC [Compound 43, 8‐[1‐(3,4‐Dimethoxyphenyl)‐1H‐1,2,3‐triazol‐4‐yl]‐2‐morpholinoquinolin‐4(1H)‐one]",< 50,< 50,< 50,< 50,–,–,–,–
"COc1ccc(-n2cc(-c3cccc4c(=O)cc(N5CCOCC5)[nH]c34)nn2)cc1 [Compound 44, 8‐[1‐(4‐Methoxyphenyl)‐1H‐1,2,3‐triazol‐4‐yl]‐2‐morpholinoquinolin‐4(1H)‐one]",< 50,< 50,< 50,< 50,–,–,–,–
"O=C(O)c1ccc(-n2cc(-c3cccc4c(=O)cc(N5CCOCC5)[nH]c34)nn2)cc1 [Compound 45, 4‐[4‐(2‐Morpholino‐4‐oxo‐1,4‐dihydroquinolin‐8‐yl)‐1H‐1,2,3‐triazol‐1‐yl]benzoic acid]",> 50,> 50,> 50,> 50,0.17 ± 0.1,0.3 ± 0.2,0.32 ± 0.2,0.3 ± 0.2
"O=c1cc(N2CCOCC2)[nH]c2c(-c3cn(-c4ccc5c(c4)OCO5)nn3)cccc12 [Compound 46, 8‐[1‐(Benzo[d][1,3]dioxol‐5‐yl)‐1H‐1,2,3‐triazol‐4‐yl]‐2‐morpholinoquinolin‐4(1H)‐one]",< 50,< 50,< 50,< 50,–,–,–,–
"COc1cc(OC)cc(-n2cc(-c3cccc4c(=O)cc(N5CCOCC5)[nH]c34)nn2)c1 [Compound 47, 8‐[1‐(3,5‐Dimethoxyphenyl)‐1H‐1,2,3‐triazol‐4‐yl]‐2‐morpholinoquinolin‐4(1H)‐one]",< 50,< 50,< 50,< 50,–,–,–,–
"O=c1cc(N2CCOCC2)[nH]c2c(-c3cn(Cc4ccccc4)nn3)cccc12 [Compound 48, 8‐(1‐Benzyl‐1H‐1,2,3‐triazol‐4‐yl)‐2‐morpholinoquinolin‐4(1H)‐one]",> 50,> 50,< 50,> 50,0.47 ± 0.26,0.1 ± 0.04,2.65 ± 0.8,1 ± 0.5
"COC(=O)c1cccc(-n2cc(-c3cccc4c(=O)cc(N5CCOCC5)[nH]c34)nn2)c1 [Compound 49, Methyl 3‐[4‐(2‐morpholino‐4‐oxo‐1,4‐dihydroquinolin‐8‐yl)‐1H‐1,2,3‐triazol‐1‐yl]benzoate]",< 50,< 50,< 50,< 50,–,–,–,–
"NS(=O)(=O)c1ccc(-n2cc(-c3cccc4c(=O)cc(N5CCOCC5)[nH]c34)nn2)cc1 [Compound 50, 4‐[4‐(2‐Morpholino‐4‐oxo‐1,4‐dihydroquinolin‐8‐yl)‐1H‐1,2,3‐triazol‐1‐yl]benzenesulfonamide]",< 50,< 50,< 50,< 50,–,–,–,–
"O=C(O)c1cccc(-n2cc(-c3cccc4c(=O)cc(N5CCOCC5)[nH]c34)nn2)c1 [Compound 52, 3‐[4‐(2‐Morpholino‐4‐oxo‐1,4‐dihydroquinolin‐8‐yl)‐1H‐1,2,3‐triazol‐1‐yl]benzoic acid]",< 50,< 50,< 50,< 50,–,–,–,–
"O=c1cc(N2CCOCC2)[nH]c2c(-c3cn(-c4cccc5ccccc45)nn3)cccc12 [Compound 53, 2‐Morpholino‐8‐[1‐(naphthalen‐1‐yl)‐1H‐1,2,3‐triazol‐4‐yl]quinolin‐4(1H)‐one]",< 50,< 50,< 50,< 50,–,–,–,–
"O=c1cc(N2CCOCC2)[nH]c2c(-c3cn(-c4ccccc4O)nn3)cccc12 [Compound 54, 8‐[1‐(2‐Hydroxyphenyl)‐1H‐1,2,3‐triazol‐4‐yl]‐2‐morpholinoquinolin‐4(1H)‐one]",> 50,< 50,> 50,< 50,0.35 ± 0.17,1.1 ± 0.5,0.26 ± 0.12,1.4 ± 0.44
"Cc1cc(F)ccc1Oc1cccc2c(=O)cc(N3CCOCC3)[nH]c12 [TGX155, reference compound]",–,–,–,–,0.41 ± 0.13,0.096 ± 0.007,> 10,9.4 ± 1.2
